Results from patent US11918592B2, “Inhibitors of cyclin dependent kinase 7 (CDK7)” (Syros Pharmaceuticals, Inc., priority 2018, dated 2024).

How the values were obtained:
HCC70 cells = assay: Inhibition of cell proliferation, CyQUANT Direct, HCC70; type: cell-based, human; settings: Homo sapiens; HCC70 triple negative breast cancer cells, 72-hour; read-out: HCC 70 proliferation calculated IC50
Experimental: (§1) HCC70 and MB453 cells are cell lines derived from human triple negative breast cancer. COV318 and COV504 cells are cell lines derived from human ovarian cancer. Representative compounds of the invention were tested at different concentrations (from 4 μM to 126.4 pM; 0.5 log serial dilutions) for their ability to inhibit the proliferation of each of these cell lines. Known CDK inhibitors dinaciclib or N-((1S,3R)-3-((5-chloro-4-(1H-indol-3-yl) pyrimidin-2-yl)amino)cyclohexyl)-5-((E)-4-(dimethylamino)but-2-enamido)picolinamide and triptolide were used as positive controls. Cells were seeded at approximately 2,000 cells/well and grown in ATCC-formulated RPMI-1640 Medium (ATCC 30-2001)+10% FBS. The cells were cultured at 37° C. in a humidified chamber in the presence of 5% CO2. Proliferation assays were conducted over a 72-hour time period. CyQUANT® Direct Cell Proliferation Assay (Life Technologies, Chicago, IL USA) was used to assess the anti-proliferative effects of the compounds following manufacturer's directions and utilizing the reagents supplied with the CyQUANT® Direct Cell kit.

COV318 cells = assay: Inhibition of cell proliferation, CyQUANT Direct, COV318; type: cell-based; settings: Homo sapiens; COV318 ovarian cancer cells, 72-hour; read-out: COV 318 proliferation calculated IC50
Experimental: as §1

COV504 cells = assay: Inhibition of cell proliferation, CyQUANT Direct, COV504; type: cell-based; settings: Homo sapiens; COV504 ovarian cancer cells, 72-hour; read-out: COV 504 proliferation calculated IC50
Experimental: as §1

MB453 cells = assay: Inhibition of cell proliferation, CyQUANT Direct, MB453; type: cell-based, human; settings: Homo sapiens; MB453 triple negative breast cancer cells, 72-hour; read-out: MB 453 proliferation calculated IC50
Experimental: as §1

CDK2/Cyclin E1 complex = CDK2/Cyclin E1 complex (Homo sapiens, UniProt P24941); assay: CDK2 kinase inhibition assay (Caliper/LabChip EZ Reader)
[1] = molecular target: CDK7/Cyclin H/MAT1 complex (Homo sapiens, UniProt P50613); assay: CDK7 kinase inhibition assay (Caliper/LabChip EZ Reader)
Chain of CDK7/Cyclin H/MAT1 complex (P50613 whole entry): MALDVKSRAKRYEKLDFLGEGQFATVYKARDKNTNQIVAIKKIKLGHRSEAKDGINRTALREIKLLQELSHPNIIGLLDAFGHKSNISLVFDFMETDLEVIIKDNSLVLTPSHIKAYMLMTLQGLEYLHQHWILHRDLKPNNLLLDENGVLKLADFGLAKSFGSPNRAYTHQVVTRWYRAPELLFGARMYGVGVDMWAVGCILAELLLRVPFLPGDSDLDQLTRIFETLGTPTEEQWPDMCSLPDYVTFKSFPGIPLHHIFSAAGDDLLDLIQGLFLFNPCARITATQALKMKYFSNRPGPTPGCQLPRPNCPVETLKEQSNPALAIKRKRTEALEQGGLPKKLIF
Chain of CDK7/Cyclin H/MAT1 complex (P51946 whole entry partner): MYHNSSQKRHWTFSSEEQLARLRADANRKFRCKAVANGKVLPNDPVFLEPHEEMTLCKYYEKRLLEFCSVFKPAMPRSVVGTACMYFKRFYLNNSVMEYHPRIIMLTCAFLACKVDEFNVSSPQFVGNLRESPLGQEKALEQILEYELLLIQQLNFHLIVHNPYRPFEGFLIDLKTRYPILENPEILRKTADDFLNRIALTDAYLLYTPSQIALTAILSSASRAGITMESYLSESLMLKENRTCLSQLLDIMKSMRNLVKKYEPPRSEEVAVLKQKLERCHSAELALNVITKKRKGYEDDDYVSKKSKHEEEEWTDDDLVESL
Chain of CDK7/Cyclin H/MAT1 complex (P51948 whole entry partner): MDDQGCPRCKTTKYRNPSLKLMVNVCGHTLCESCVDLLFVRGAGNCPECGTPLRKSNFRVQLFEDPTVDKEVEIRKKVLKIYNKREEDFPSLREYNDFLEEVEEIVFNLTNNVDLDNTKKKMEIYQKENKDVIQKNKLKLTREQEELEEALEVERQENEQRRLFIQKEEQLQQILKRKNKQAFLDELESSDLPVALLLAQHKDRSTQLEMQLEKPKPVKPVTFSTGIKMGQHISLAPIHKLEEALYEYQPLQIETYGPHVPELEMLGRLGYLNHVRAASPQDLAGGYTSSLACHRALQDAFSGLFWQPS
Experimental: (§2) Compounds of the invention were assayed for inhibition of CDK7, CDK9, CDK12, and CDK2 activity at Biortus Biosciences (Jiangyin, Jiangsu Province, P.R. of China) using kinase assays for each CDK developed with a Caliper/LabChip EZ Reader (Perkin Elmer, Waltham, MA).
(§3) Furthermore, the CDK9 inhibition assay used CDK9/Cyclin T1 complex (8 nM) and “5-FAM-CDK9tide” peptide substrate (2 μM, synthesized fluorophore-labeled peptide with the following sequence: 5-FAM-GSRTPMY-NH2 (SEQ ID NO:2) where 5-FAM is defined above and NH2 signifies a C-terminal amide) with 10 mM MgCl2 in the buffer composition listed above. The CDK12 inhibition assay used CDK12 (aa686-1082)/Cyclin K complex (50 nM) and “5-FAM-CDK9tide” (2 μM) as defined above, with 2 mM MgCl2 in the buffer composition above. Additionally, the CDK2 inhibition assay used CDK2/Cyclin E1 complex (0.5 nM) and “5-FAM-CDK7tide” (2 μM) as defined above, with 2 mM MgCl2 in the buffer composition listed above.
(§4) The incubation period at 27° C. for each CDK inhibition assay was chosen such that the fraction of phosphorylated peptide product produced in each assay, relative to the total peptide concentration, was approximately 20% (±5%) for the uninhibited kinase (35 min. for CDK7, 35 min. for CDK2, 3 hr. for CDK12, 15 min. for CDK9).

CDK9/Cyclin T1 complex = CDK9/Cyclin T1 complex (Homo sapiens, UniProt P50750); assay: CDK9 kinase inhibition assay (Caliper/LabChip EZ Reader)
Chain of CDK9/Cyclin T1 complex (P50750 whole entry, the tested form may be a part): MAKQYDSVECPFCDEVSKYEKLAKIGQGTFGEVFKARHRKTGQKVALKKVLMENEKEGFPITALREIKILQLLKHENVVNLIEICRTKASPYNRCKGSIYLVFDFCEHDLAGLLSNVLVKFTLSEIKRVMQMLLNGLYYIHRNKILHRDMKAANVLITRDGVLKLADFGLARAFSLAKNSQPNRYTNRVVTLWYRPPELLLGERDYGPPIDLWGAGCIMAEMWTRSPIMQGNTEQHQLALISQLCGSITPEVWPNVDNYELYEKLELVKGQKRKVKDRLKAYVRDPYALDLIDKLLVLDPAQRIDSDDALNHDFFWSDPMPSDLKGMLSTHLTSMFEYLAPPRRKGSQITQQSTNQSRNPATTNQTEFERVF
Chain of CDK9/Cyclin T1 complex (O60563 whole entry partner, the tested form may be a part): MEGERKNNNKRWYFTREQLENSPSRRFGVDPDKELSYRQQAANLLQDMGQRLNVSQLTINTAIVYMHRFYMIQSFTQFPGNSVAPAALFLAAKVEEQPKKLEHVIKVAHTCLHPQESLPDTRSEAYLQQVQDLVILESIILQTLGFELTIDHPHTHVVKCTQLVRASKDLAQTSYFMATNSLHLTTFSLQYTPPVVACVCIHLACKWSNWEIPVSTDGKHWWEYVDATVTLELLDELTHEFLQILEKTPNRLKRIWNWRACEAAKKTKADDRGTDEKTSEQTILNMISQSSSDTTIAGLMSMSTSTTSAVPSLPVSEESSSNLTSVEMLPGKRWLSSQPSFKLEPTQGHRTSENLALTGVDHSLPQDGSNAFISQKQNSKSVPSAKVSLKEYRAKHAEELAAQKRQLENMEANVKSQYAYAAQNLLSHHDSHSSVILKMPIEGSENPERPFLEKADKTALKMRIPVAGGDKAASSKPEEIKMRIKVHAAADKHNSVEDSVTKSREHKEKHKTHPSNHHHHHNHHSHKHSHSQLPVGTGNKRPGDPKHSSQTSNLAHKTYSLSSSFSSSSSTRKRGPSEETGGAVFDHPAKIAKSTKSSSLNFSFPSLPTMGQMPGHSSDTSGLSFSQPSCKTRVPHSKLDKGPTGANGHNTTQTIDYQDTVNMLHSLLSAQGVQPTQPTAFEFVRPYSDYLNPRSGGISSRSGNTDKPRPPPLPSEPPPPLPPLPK
Experimental: as §2, §3, §4

[2] = molecular target: CDK12 (aa686-1082)/Cyclin K complex (Homo sapiens, UniProt Q9NYV4); assay: CDK12 kinase inhibition assay (Caliper/LabChip EZ Reader)
Chain of CDK12 (aa686-1082)/Cyclin K complex (Q9NYV4 686-1082): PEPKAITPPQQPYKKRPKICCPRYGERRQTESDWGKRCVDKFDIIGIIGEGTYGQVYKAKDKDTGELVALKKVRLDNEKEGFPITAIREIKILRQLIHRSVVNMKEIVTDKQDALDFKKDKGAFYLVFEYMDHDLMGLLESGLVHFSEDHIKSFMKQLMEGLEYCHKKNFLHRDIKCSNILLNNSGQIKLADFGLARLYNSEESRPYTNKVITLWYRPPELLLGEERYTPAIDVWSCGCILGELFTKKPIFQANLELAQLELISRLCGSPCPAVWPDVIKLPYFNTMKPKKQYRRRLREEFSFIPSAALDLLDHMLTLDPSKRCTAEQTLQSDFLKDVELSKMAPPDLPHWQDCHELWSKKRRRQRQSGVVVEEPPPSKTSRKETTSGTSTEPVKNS
Chain of CDK12 (aa686-1082)/Cyclin K complex (O75909 whole entry partner, the tested form may be a part): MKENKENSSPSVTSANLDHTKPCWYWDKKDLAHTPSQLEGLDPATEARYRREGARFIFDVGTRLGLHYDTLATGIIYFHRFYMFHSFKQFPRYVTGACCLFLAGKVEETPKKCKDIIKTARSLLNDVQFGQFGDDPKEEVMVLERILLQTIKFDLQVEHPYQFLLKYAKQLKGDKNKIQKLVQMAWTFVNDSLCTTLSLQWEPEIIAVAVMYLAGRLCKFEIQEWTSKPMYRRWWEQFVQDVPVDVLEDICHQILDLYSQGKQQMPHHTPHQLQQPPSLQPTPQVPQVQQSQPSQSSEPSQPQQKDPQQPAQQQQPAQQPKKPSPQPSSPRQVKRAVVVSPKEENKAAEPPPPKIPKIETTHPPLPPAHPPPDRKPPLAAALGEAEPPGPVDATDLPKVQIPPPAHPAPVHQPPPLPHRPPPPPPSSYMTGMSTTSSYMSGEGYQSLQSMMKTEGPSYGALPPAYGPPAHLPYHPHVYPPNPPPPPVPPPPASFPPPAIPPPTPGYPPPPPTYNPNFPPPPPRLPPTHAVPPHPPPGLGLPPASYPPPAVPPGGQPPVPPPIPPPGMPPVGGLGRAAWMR
Experimental: as §2, §3, §4

SMILES | IC50 (HCC70 cells) [µM] | IC50 (COV318 cells) [µM] | IC50 (COV504 cells) [µM] | IC50 (MB453 cells) [µM] | IC50 (CDK2/Cyclin E1 complex) [µM] | IC50 [1] [µM] | IC50 (CDK9/Cyclin T1 complex) [µM] | IC50 [2] [µM]
Cc1noc(C)c1-c1ccc2c(-c3nc(N[C@H]4CCC[C@@H]4N4CC[C@H](F)C4)ncc3C(F)(F)F)c[nH]c2n1 [Compound 150, 4-[6-(3,5-dimethylisoxazol-4-yl)-1H-pyrrolo[2,3-b]pyridin-3-yl]-N-[(1S,2S)-2-[(3S)-3-fluoropyrrolidin-1-yl]cyclopentyl]-5-(trifluoromethyl)pyrimidin-2-amine] | 0.5 to 2 | > 2 | 0.5 to 2 | > 2 | > 0.5 | 0.03 to 0.1 | > 0.5 | > 0.5
COCCNC1CCC[C@@H]1Nc1ncc(C(F)(F)F)c(-c2c[nH]c3nc(-c4c(C)noc4C)ccc23)n1 (stereo in doubt) [Compound 152, (1S, 2R)—N1-[4-[6-(3,5-dimethylisoxazol-4-yl)-1H-pyrrolo [2,3-b]pyridin-3-yl]-5-(trifluoromethyl)pyrimidin-2-yl]-N2-(2-methoxyethyl)cyclopentane-1,2-diamine] | 0.1 to 0.5 | 0.5 to 2 | 0.1 to 0.5 | 0.1 to 0.5 | > 0.5 | < 0.03 | > 0.5 | > 0.5
Cc1noc(C)c1-c1ccc2c(-c3nc(N[C@H]4CCC[C@@H]4N4CC(O)C4)ncc3C(F)(F)F)c[nH]c2n1 [Compound 159, 1-[(1S,2S)-2-[[4-[6-(3,5-dimethylisoxazol-4-yl)-1H-pyrrolo[2,3-b]pyridin-3-yl]-5-(trifluoromethyl)pyrimidin-2-yl]amino]cyclopentyl] azetidin-3-ol] | < 0.1 | > 2 | 0.1 to 0.5 | 0.1 to 0.5 | > 0.5 | < 0.03 | > 0.5 | > 0.5
Cc1noc(C)c1-c1ccc2c(-c3nc(N[C@H]4CCC[C@@H]4NCCF)ncc3C(F)(F)F)c[nH]c2n1 [Compound 151, (1S,2S)—N1-[4-[6-(3,5-dimethylisoxazol-4-yl)-1H-pyrrolo[2,3-b]pyridin-3-yl]-5-(trifluoromethyl)pyrimidin-2-yl]-N2-(2-fluoroethyl)cyclopentane-1,2-diamine] | < 0.1 | > 2 | < 0.1 | 0.1 to 0.5 | > 0.5 | < 0.03 | > 0.5 | > 0.5
Cc1noc(C)c1-c1ccc2c(-c3nc(NC4CCCC4N)ncc3C(F)(F)F)c[nH]c2n1 (stereo not drawn) [Compound 127] | < 0.1 | 0.1 to 0.5 | < 0.1 | < 0.1 | > 0.5 | < 0.03 | > 0.5 | > 0.5
COCCN[C@H]1CC[C@@H]1Nc1ncc(C(F)(F)F)c(-c2c[nH]c3cc(C#N)ccc23)n1 [Compound 133] | 0.5 to 2 | 0.5 to 2 | 0.5 to 2 | 0.5 to 2 | > 0.5 | 0.03 to 0.1 | > 0.5 | > 0.5
Cc1noc(C)c1-c1ccc2c(-c3nc(N[C@H]4CCC[C@@H]4N4CC(F)C4)ncc3C(F)(F)F)c[nH]c2n1 [Compound 155, 4-[6-(3,5-dimethylisoxazol-4-yl)-1H-pyrrolo [2,3-b]pyridin-3-yl]-N-[(1S, 2S)-2-(3-fluoroazetidin-1-yl)cyclopentyl]-5-(trifluoromethyl) pyrimidin-2-amine] | > 2 | > 2 | > 2 | > 2 | > 0.5 | 0.1 to 0.5 | > 0.5 | > 0.5
N#Cc1ccc2c(-c3nc(N[C@H]4CC[C@@H]4N4CCCC4)ncc3C(F)(F)F)c[nH]c2c1 [Compound 135, 3-[2-[[(1S,2S)-2-pyrrolidin-1-ylcyclobutyl]-amino]-5-(trifluoromethyl)pyrimidin-4-yl]-1H-indole-6-carbonitrile] | > 2 | > 2 | 0.5 to 2 | 0.1 to 0.5 | > 0.5 | < 0.03 | > 0.5 | > 0.5
N#Cc1ccc2c(-c3nc(NC[C@@H]4COCCN4)ncc3C(F)(F)F)c[nH]c2c1 [Compound 102] | > 2 | > 2 | > 2 | > 2 | > 0.5 | > 0.5 | > 0.5 | > 0.5
Cc1noc(C)c1-c1ccc2c(-c3nc(N[C@@H]4C[C@H]5CC[N@](CC5)C4)ncc3C(F)(F)F)cn(S(=O)(=O)c3ccccc3)c2n1 [Compound 142, (3R)—N-[4-[1-(benzenesulfonyl)-6-(3,5-dimethylisoxazol-4-yl)pyrrolo[2,3-b]pyridin-3-yl]-5-(trifluoromethyl)pyrimidin-2-yl]-1-azabicyclo[3.2.2]nonan-3-amine] | 0.1 to 0.5 | 0.1 to 0.5 | 0.1 to 0.5 | 0.1 to 0.5 | > 0.5 | < 0.03 | > 0.5 | > 0.5
CCO[C@@H]1CNC[C@H]1Nc1ncc(C(F)(F)F)c(-c2c[nH]c3cc(C#N)ccc23)n1 (relative stereo) [Compound 111] | > 2 | > 2 | > 2 | > 2 | > 0.5 | 0.1 to 0.5 | > 0.5 | > 0.5
Cc1noc(C)c1-c1ccc2c(-c3nc(N[C@H]4CCC[C@H]4N4CC(F)C4)ncc3C(F)(F)F)c[nH]c2n1 [Compound 156, 4-[6-(3,5-dimethylisoxazol-4-yl)-1H-pyrrolo [2,3-b]pyridin-3-yl]-N-[(1S, 2R)-2-(3-fluoroazetidin-1-yl)cyclopentyl]-5-(trifluoromethyl) pyrimidin-2-amine] | 0.1 to 0.5 | > 2 | 0.1 to 0.5 | 0.5 to 2 | > 0.5 | < 0.03 | > 0.5 | > 0.5
CN(C)[C@H]1CCC[C@@H]1Nc1ncc(C(F)(F)F)c(-c2c[nH]c3cc(C#N)ccc23)n1 [Compound 124] | 0.5 to 2 | > 2 | 0.5 to 2 | 0.5 to 2 | > 0.5 | 0.1 to 0.5 | > 0.5 | > 0.5
N#Cc1ccc2c(-c3nc(N[C@H]4CNC[C@@H]4c4ccc(Cl)cc4)ncc3C(F)(F)F)c[nH]c2c1 (relative stereo) [Compound 113] | > 2 | > 2 | 0.5 to 2 | > 2 | > 0.5 | > 0.5 | > 0.5 | > 0.5
Cc1noc(C)c1-c1ccc2c(-c3nc(N[C@H]4CCC[C@@H]4NCCO)ncc3C(F)(F)F)c[nH]c2n1 [Compound 154, 2-[[(1S,2S)-2-[[4-[6-(3,5-dimethylisoxazol-4-yl)-1H-pyrrolo [2,3-b]pyridin-3-yl]-5-(trifluoromethyl)pyrimidin-2-yl]amino]cyclopentyl]amino]ethanol] | < 0.1 | 0.1 to 0.5 | < 0.1 | < 0.1 | > 0.5 | < 0.03 | > 0.5 | > 0.5
Cc1noc(C)c1-c1ccc2c(-c3nc(N[C@H]4CCC[C@H]4N4CC(O)C4)ncc3C(F)(F)F)c[nH]c2n1 [Compound 163, 1-[(1R,2S)-2-[[4-[6-(3,5-dimethylisoxazol-4-yl)-1H-pyrrolo[2,3-b]pyridin-3-yl]-5-(trifluoromethyl)pyrimidin-2-yl]amino]cyclopentyl]azetidin-3-ol] | > 2 | > 2 | > 2 | 0.5 to 2 | > 0.5 | 0.03 to 0.1 | > 0.5 | > 0.5
Cc1noc(C)c1-c1ccc2c(-c3nc(NC4CC[C@@H]4N4CCCC4)ncc3C(F)(F)F)c[nH]c2n1 (stereo in doubt) [Compound 149, 4-[6-(3,5-dimethylisoxazol-4-yl)-1H-pyrrolo[2,3-b]pyridin-3-yl]-N-(2-pyrrolidin-1-ylcyclobutyl)-5-(trifluoromethyl) pyrimidin-2-amine] | < 0.1 | > 2 | < 0.1 | < 0.1 | > 0.5 | < 0.03 | > 0.5 | > 0.5
C[C@H]1C[C@H](Nc2ncc(C(F)(F)F)c(-c3c[nH]c4cc(C#N)ccc34)n2)CN1 [Compound 104] | 0.5 to 2 | > 2 | 0.1 to 0.5 | 0.1 to 0.5 | > 0.5 | 0.03 to 0.1 | > 0.5 | > 0.5
